Results on 29 molecules are retold here after patent US20240083845A1 (priority 2020, published 2024).

Each structure is given as a SMILES string.

The assay deals with SARS-CoV-2 Mpro (Severe acute respiratory syndrome coronavirus 2, UniProt P0DTD1). In words: SARS-CoV-2 Mpro enzyme assay (FRET). The assay is classed as biochemical. The following applies: FRET substrate Dabcyl-KTSAVLQSGFRKM-E(Edans)-Amide, 20 nM enzyme, 30 min preincubation at 30° C., mean n=2; read-out: SARS-CoV-2 Mpro enzyme assay pKi (converted).
With `CC[C@@H](CC(=O)N[C@@H](CC(C)(C)C)C(=O)NC(C[C@@H]1CCNC1=O)C(=O)C(=O)NC1CC1)c1ccccc1` (single isomer, unassigned) [Example 14], the Ki is 0.00794 µM.

Take `CC[C@H](CC(=O)N[C@@H](CC(C)(C)C)C(=O)NC(C[C@@H]1CCNC1=O)C(=O)C(=O)NC1CC1)c1ccccc1` (single isomer, unassigned) [Example 15]: the Ki is 0.01 µM. For `CC(C)(C)C[C@H](NC(=O)C[C@@H](c1ccccc1)C(F)(F)F)C(=O)NC(C[C@@H]1CCNC1=O)C(=O)C(=O)NC1CC1` (single isomer, unassigned) [Example 16] the value was 0.02 µM. Next, `CC(C)(C)C[C@H](NC(=O)C[C@H](c1ccccc1)C(F)(F)F)C(=O)NC(C[C@@H]1CCNC1=O)C(=O)C(=O)NC1CC1` (single isomer, unassigned) [Example 17]: 0.0126 µM; `NC(=O)C(=O)C(C[C@@H]1CCNC1=O)NC(=O)[C@H](CC1CC1)NC(=O)/C=C/c1ccc(Cl)cc1F` (stereo partly drawn) [Example 1, 3-((S)-2-((E)-3-(4-chloro-2-fluorophenyl)acrylamido)-3-cyclopropylpropanamido)-2-oxo-4-((S)-2-oxopyrrolidin-3-yl)butanamide]: 0.0126 µM. For `NC(=O)C(=O)C(C[C@@H]1CCNC1=O)NC(=O)[C@H](CC1CC1)NC(=O)/C=C/c1ccccc1` (stereo partly drawn) [Example 2, 3-((S)-2-cinnamamido-3-cyclopropylpropanamido)-2-oxo-4-((S)-2-oxopyrrolidin-3-yl)butanamide] the value was 0.02 µM; for `NC(=O)C(=O)C(C[C@@H]1CCNC1=O)NC(=O)[C@H](CC1CC1)NC(=O)OCc1ccccc1` (stereo partly drawn) [Example 3, benzyl ((2S)-1-((4-amino-3,4-dioxo-1-((S)-2-oxopyrrolidin-3-yl)butan-2-yl)amino)-3-cyclopropyl-1-oxopropan-2-yl)carbamate], 0.0251 µM. As to `NC(=O)C(=NO)C(C[C@@H]1CCNC1=O)NC(=O)[C@H](CC1CC1)NC(=O)/C=C/c1ccc(Cl)cc1F` (stereo partly drawn) [Example 4, 3-((S)-2-((E)-3-(4-chloro-2-fluorophenyl)acrylamido)-3-cyclopropylpropanamido)-2-(hydroxyimino)-4-((S)-2-oxopyrrolidin-3-yl)butanamide], the Ki is 1 µM.

For `CC(C)(C)NC(=O)C(=O)C(C[C@@H]1CCNC1=O)NC(=O)[C@H](CC1CC1)NC(=O)/C=C/c1ccc(Cl)cc1F` (stereo partly drawn) [Example 5, N-(tert-butyl)-3-((S)-2-((E)-3-(4-chloro-2-fluorophenyl)acrylamido)-3-cyclopropylpropanamido)-2-oxo-4-((S)-2-oxopyrrolidin-3-yl)butanamide], the Ki was 0.501 µM.

As to `NC(=O)C(=O)C(CC1CC1)NC(=O)[C@H](CC1CC1)NC(=O)/C=C/c1ccc(Cl)cc1F` (stereo partly drawn) [Example 6, 3-((S)-2-((E)-3-(4-chloro-2-fluorophenyl)acrylamido)-3-cyclopropylpropanamido)-4-cyclopropyl-2-oxobutanamide], the Ki was 5.01 µM. Consider `NC(=O)C(=O)C(CC1CCCC1)NC(=O)[C@H](CC1CC1)NC(=O)/C=C/c1ccc(Cl)cc1F` (stereo partly drawn) [Example 7, 3-((S)-2-((E)-3-(4-chloro-2-fluorophenyl)acrylamido)-3-cyclopropylpropanamido)-4-cyclopentyl-2-oxobutanamide], for which the Ki is 7.94 µM. For `NC(=O)C(=O)C(C[C@@H]1CCNC1=O)NC(=O)[C@H](CC1CC1)NC(=O)CCc1ccccc1` (stereo partly drawn) [Example 8, 3-((S)-3-cyclopropyl-2-(3-phenylpropanamido)propanamido)-2-oxo-4-((S)-2-oxopyrrolidin-3-yl)butanamide] the value was 0.0501 µM; for `CC(C)(C)C[C@H](NC(=O)/C=C/c1ccc(Cl)cc1Cl)C(=O)NC(C#N)C[C@@H]1CCNC1=O` (stereo partly drawn) [Example 9, (2S)-N-(1-Cyano-2-((S)-2-oxopyrrolidin-3-yl)ethyl)-2-((E)-3-(2,4-dichlorophenyl)acrylamido)-4,4-dimethylpentanamide], 0.398 µM. For the molecule `CC(C)(C)C[C@H](NC(=O)/C=C/c1ccc(Cl)cc1Cl)C(=O)NC(C[C@@H]1CCNC1=O)C(=O)C(=O)NC1CC1` (stereo partly drawn) [Example 10, (2S)-N-(4-(Cyclopropylamino)-3,4-dioxo-1-((S)-2-oxopyrrolidin-3-yl)butan-2-yl)-2-((E)-3-(2,4-dichlorophenyl)acrylamido)-4,4-dimethylpentanamide], the Ki was 0.00631 µM. `CC(C)(C)C[C@H](NC(=O)/C=C/c1ccc(Cl)cc1F)C(=O)NC(C[C@@H]1CCNC1=O)C(=O)C(=O)NC1CC1` (stereo partly drawn) [Example 11, (2S)-2-((E)-3-(4-chloro-2-fluorophenyl)acrylamido)-N-(4-(cyclopropylamino)-3,4-dioxo-1-((S)-2-oxopyrrolidin-3-yl)butan-2-yl)-4,4-dimethylpentanamide]: the Ki was 100000 µM. Next, `C[C@@H](CC(=O)N[C@@H](CC(C)(C)C)C(=O)NC(C[C@@H]1CCNC1=O)C(=O)C(=O)NC1CC1)c1ccccc1` (stereo partly drawn) [Example 12, (2S)-N-(4-(cyclopropylamino)-3,4-dioxo-1-((S)-2-oxopyrrolidin-3-yl)butan-2-yl)-4,4-dimethyl-2-((S)-3-phenylbutanamido)pentanamide]: 0.0158 µM; `C[C@H](CC(=O)N[C@@H](CC(C)(C)C)C(=O)NC(C[C@@H]1CCNC1=O)C(=O)C(=O)NC1CC1)c1ccccc1` (stereo partly drawn) [Example 13, (2S)-N-(4-(cyclopropylamino)-3,4-dioxo-1-((S)-2-oxopyrrolidin-3-yl)butan-2-yl)-4,4-dimethyl-2-((R)-3-phenylbutanamido)pentanamide]: 0.0158 µM; `CC(C)C[C@H](NC(=O)/C=C/c1ccc(Cl)cc1F)C(=O)NC(C[C@@H]1CCNC1=O)C(=O)C(N)=O` (stereo partly drawn) [Example 18, (2S)-N-(4-amino-3,4-dioxo-1-((S)-2-oxopyrrolidin-3-yl)butan-2-yl)-2-((E)-3-(4-chloro-2-fluorophenyl)acrylamido)-4-methylpentanamide]: 0.0126 µM. On to `CCNC(=O)C(=O)C(C[C@@H]1CCNC1=O)NC(=O)[C@H](CC1CC1)NC(=O)/C=C/c1ccc(Cl)cc1F` (stereo partly drawn) [Example 19, 3-((S)-2-((E)-3-(4-chloro-2-fluorophenyl)acrylamido)-3-cyclopropylpropanamido)-N-ethyl-2-oxo-4-((S)-2-oxopyrrolidin-3-yl)butanamide], for which the Ki was 0.0126 µM. Consider `NC(=O)C(=O)C(C[C@@H]1CCNC1=O)NC(=O)[C@H](CC1CC1)NC(=O)/C=C/c1ccc(Cl)cc1Cl` (stereo partly drawn) [Example 20, 3-((S)-3-cyclopropyl-2-((E)-3-(2,4-dichlorophenyl)acrylamido)propanamido)-2-oxo-4-((S)-2-oxopyrrolidin-3-yl)butanamide], for which the Ki is 0.1 µM. For `O=C(/C=C/c1ccc(Cl)cc1F)N[C@@H](CC1CC1)C(=O)NC(C[C@@H]1CCNC1=O)C(=O)C(=O)NC1CC1` (stereo partly drawn) [Example 21, 3-((S)-2-((E)-3-(4-chloro-2-fluorophenyl)acrylamido)-3-cyclopropylpropanamido)-N-cyclopropyl-2-oxo-4-((S)-2-oxopyrrolidin-3-yl)butanamide] the value was 0.00794 µM.

Consider `CC(C)(C)C[C@H](NC(=O)/C=C/c1ccc(Cl)cc1F)C(=O)NC(C[C@@H]1CCNC1=O)C(=O)C(N)=O` (stereo partly drawn) [Example 22, (2S)-N-(4-amino-3,4-dioxo-1-((S)-2-oxopyrrolidin-3-yl)butan-2-yl)-2-((E)-3-(4-chloro-2-fluorophenyl)acrylamido)-4,4-dimethylpentanamide], for which the Ki is 0.00631 µM. Take `CCNC(=O)C(=O)C(C[C@@H]1CCNC1=O)NC(=O)[C@H](CC(C)(C)C)NC(=O)/C=C/c1ccc(Cl)cc1F` (stereo partly drawn) [Example 23, (2S)-2-((E)-3-(4-chloro-2-fluorophenyl)acrylamido)-N-(4-(ethylamino)-3,4-dioxo-1-((S)-2-oxopyrrolidin-3-yl)butan-2-yl)-4,4-dimethylpentanamide]: the Ki was 0.0126 µM.

With `CCNC(=O)C(=O)C(C[C@@H]1CCNC1=O)NC(=O)[C@H](CC1CC1)NC(=O)/C=C/c1ccc(Cl)cc1Cl` (stereo partly drawn) [Example 24, 3-((S)-3-cyclopropyl-2-((E)-3-(2,4-dichlorophenyl)acrylamido)propanamido)-N-ethyl-2-oxo-4-((S)-2-oxopyrrolidin-3-yl)butanamide], the Ki is 0.0126 µM. Next, `O=C(/C=C/c1ccc(Cl)cc1Cl)N[C@@H](CC1CC1)C(=O)NC(C[C@@H]1CCNC1=O)C(=O)C(=O)NC1CC1` (stereo partly drawn) [Example 25, N-cyclopropyl-3-((S)-3-cyclopropyl-2-((E)-3-(2,4-dichlorophenyl)acrylamido)propanamido)-2-oxo-4-((S)-2-oxopyrrolidin-3-yl)butanamide]: 0.01 µM; `CCNC(=O)C(=O)C(C[C@@H]1CCNC1=O)NC(=O)[C@H](CC(C)(C)C)NC(=O)/C=C/c1ccc(Cl)cc1Cl` (stereo partly drawn) [Example 26, (2S)-2-((E)-3-(2,4-dichlorophenyl)acrylamido)-N-(4-(ethylamino)-3,4-dioxo-1-((S)-2-oxopyrrolidin-3-yl)butan-2-yl)-4,4-dimethylpentanamide]: 0.01 µM; `CC(C)(C)C[C@H](NC(=O)/C=C/c1ccc(Cl)cc1Cl)C(=O)NC(C[C@@H]1CCNC1=O)C(=O)C(N)=O` (stereo partly drawn) [Example 27, (2S)-N-(4-amino-3,4-dioxo-1-((S)-2-oxopyrrolidin-3-yl)butan-2-yl)-2-((E)-3-(2,4-dichlorophenyl)acrylamido)-4,4-dimethylpentanamide]: 0.00794 µM. Next, `O=C(/C=C/c1ccc(Cl)cc1F)N[C@@H](CC1CC1)C(=O)NC(C[C@@H]1CCNC1=O)C(=O)C(=O)NC1CC1` (stereo partly drawn) [Example 28, 3-((S)-2-((E)-3-(4-chloro-2-fluorophenyl)acrylamido)-3-cyclopropylpropanamido)-N-cyclopropyl-2-oxo-4-((S)-2-oxopyrrolidin-3-yl)butanamide]: 0.0158 µM. Next, `O=C(N[C@@H](CC1CC1)C(=O)NC(C[C@@H]1CCNC1=O)C(=O)C(=O)NC1CC1)OCc1ccccc1` (stereo partly drawn) [Example 29, benzyl ((2S)-3-cyclopropyl-1-((4-(cyclopropylamino)-3,4-dioxo-1-((S)-2-oxopyrrolidin-3-yl)butan-2-yl)amino)-1-oxopropan-2-yl)carbamate]: 0.0158 µM.
